Results taken from patent US20070179137A1, “Screening of anti-viral drugs and pharmaceuticals composition containing thiazolidinone derivatives” (priority 2004, published 2007).
≈ marks a conversion by molar mass, not a printed value.

Legend:
[1] = molecular target: T1, CMV envelope glycoprotein B binding to immobilized heparin (Human cytomegalovirus, UniProt P06473); assay: Inhibition of CMV envelope glycoprotein B binding to immobilized heparin by soluble heparin; conditions: soluble heparin 0.2-10 mg/ml, FIG. 2
T1 construct: purchased Research Diagnostics, INC; RDI-RCMVAG-B
Description: The present invention discloses for the first time the use of CMV envelope glycoprotein B for compound screening and for direct targeting of GAG binding sites. The screening method of the present invention is based on an ELISA assay for CMV envelope glycoprotein B interaction with heparin on 96-well plates, suitable for screening compound collections, newly developed by the inventors of the present invention. The assay measures binding of CMV envelope glycoprotein B to immobilized heparin. The amount of bound CMV envelope glycoprotein B is determined by an ELISA assay using a monoclonal antibody conjugated to horseradish peroxidase. […] Soluble heparin was found according to the present invention to inhibit CMV envelope glycoprotein B binding to immobilized heparin (FIG. 2). This method can be used with other specific GBVPs such as HSV-1 glycoproteins B, C, and D, HHV-7 glycoprotein B, and HCV envelope protein. Additionally, other GAGs are capable of replacing heparin in this kind of assay. […]
Porcine intestinal mucosa heparin conjugated to Bovine Serum Albumin (Heparin-BSA; Sigma Cat. No. H0403) at 5 mg/ml in Phosphate Buffered Saline (PBS; pH 6.5) was added to a 96-well polystyrene ELISA plate (NLNC Cat. No. 442404; 0.1 ml per well) and incubated over night at 4° C. […] The Optical Density (OD) of the samples was measured at 450 nm using an ELISA plate reader (Dynatech MR5000).

[2] = Neutral red uptake cytotoxicity assay; conditions: human
[3] = system: heparin; assay: Direct interaction of inhibitor compounds with immobilized heparin (pre-incubation versus co-incubation with GBVP); type: binding; conditions: for Inhibition (%) Co-incubation: GBVP co-incubated with compound for 90 min in control wells; for Inhibition (%) Pre-Incubation: compound pre-incubated with immobilized heparin 90 min, washed, then GBVP added
Protocol: Compounds found to be suitable for further development and chemical optimization may be further subjected to a second screening, identifying those that directly bind to heparin. Individual compounds are incubated with immobilized heparin in the absence of CMV envelope glycoprotein B. After washing of the plates to remove all unbound compound, CMV envelope glycoprotein B is added. At this time, in separate wells, CMV envelope glycoprotein B is co-incubated with the test compounds and the standard assay protocol is followed. Test compounds which bind directly and irreversibly to heparin are identified by comparing the results of pre-incubation versus co-incubation experiments.
96-well ELISA plates are coated with Heparin-BSA, then blocked with BSA as described in Example 1. GBVP Hit Compounds, at final concentration 0.1-200 μM, are incubated in the ELISA plate for 90 min, and then washed with incubation buffer. After washing, GBVP is added to the wells pre-incubated with compounds. At the same time, in separate control wells, GBVP is co-incubated with Hit Compounds for 90 min. Following the incubation, GBVP bound to the plate is quantified by antibody conjugated to horse radish peroxidase and OD measurement as described in Example 1.

[4] = system: Varicella Zoster Virus (VZV); assay: Cytopathic effect (CPE) inhibition assay on Varicella Zoster Virus in HFF cells; type: cell-based; conditions: Human alphaherpesvirus 3, HFF, 240 h, ten days incubation
Protocol: Cytopathic effect (CPE) inhibition assays were performed on Varicella Zoster Virus (VZV) as follows. Low passage human foreskin fibroblast (HFF) cells were seeded into 96-well tissue culture plates 24 hours prior to use at a cell concentration of 2.5×10^5 cells per ml in 0.1 ml of MEM supplemented with 10% FBS. The cells were then incubated for 24 hours at 37° C. in a C02 incubator. After incubation, the medium was removed and 125 μl of candidate drug in growth medium (MEM with 10% FBS) was added to the first row in triplicate wells, all other wells containing 100 μl of media. The drug in the first row of wells was then diluted serially 1:5 throughout the remaining wells by transferring 25 μl using the Cetus liquid handling machine. After dilution of drug, 100 μl growth medium containing virus (2500 PFU per well) was added to each well, excluding cell control wells, which received 100 μl of growth medium only. The plates were then incubated at 37° C. in a CO2 incubator for ten days. After the incubation period, media was aspirated and the cells stained with a 0.1% crystal violet solution for four hours. The stain was then removed and the plates rinsed using tap water until all excess stain was removed. The plates were allowed to dry for 24 hours and then read on a BioTek plate reader at 620 nm. […]

[5] = system: bovine viral diarrhea virus; assay: Inhibition of bovine viral diarrhea virus in MDBK cells; type: cell-based
Description: (§1) Bovine viral diarrhea virus is related to HCV and may serve as a surrogate model for human hepatitis C virus (Yanagida K., et al., ibid).

[6] = Cytotoxicity in MDBK cells (IC50 used for SI); type: cell-based; conditions: bovine, MDBK (Madin-Darby bovine kidney) cells, value paired with EC50 to give SI
Description: as §1

T1 sequence (P06473 32-906): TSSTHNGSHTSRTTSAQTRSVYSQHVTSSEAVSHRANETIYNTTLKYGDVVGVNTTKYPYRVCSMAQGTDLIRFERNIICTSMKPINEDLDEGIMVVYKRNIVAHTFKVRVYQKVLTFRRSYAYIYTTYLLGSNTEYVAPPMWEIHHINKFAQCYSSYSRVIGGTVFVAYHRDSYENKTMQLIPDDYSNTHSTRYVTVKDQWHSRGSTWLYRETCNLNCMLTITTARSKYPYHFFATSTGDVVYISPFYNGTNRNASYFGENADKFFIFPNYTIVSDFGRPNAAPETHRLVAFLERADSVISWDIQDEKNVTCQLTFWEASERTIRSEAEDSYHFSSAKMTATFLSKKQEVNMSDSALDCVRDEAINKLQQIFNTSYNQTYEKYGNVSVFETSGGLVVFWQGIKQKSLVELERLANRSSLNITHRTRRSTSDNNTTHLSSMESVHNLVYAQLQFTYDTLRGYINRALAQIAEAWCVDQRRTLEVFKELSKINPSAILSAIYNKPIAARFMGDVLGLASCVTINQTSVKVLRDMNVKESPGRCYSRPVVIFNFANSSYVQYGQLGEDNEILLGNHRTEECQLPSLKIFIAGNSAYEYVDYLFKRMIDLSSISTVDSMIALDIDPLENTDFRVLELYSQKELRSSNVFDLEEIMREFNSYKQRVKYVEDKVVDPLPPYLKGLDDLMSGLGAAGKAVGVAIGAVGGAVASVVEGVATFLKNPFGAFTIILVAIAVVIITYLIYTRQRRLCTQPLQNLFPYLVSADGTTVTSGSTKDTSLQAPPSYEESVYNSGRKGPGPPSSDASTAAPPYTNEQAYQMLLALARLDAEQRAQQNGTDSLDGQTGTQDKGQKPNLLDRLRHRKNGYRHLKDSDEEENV

**Q.** Which “Inhibition of CMV envelope glycoprotein B binding to immobilized heparin” value [1] does the source give for heparin [Soluble heparin] here?
**A.** inhibit

**Q.** For `CCCCN1C(=O)/C(=C/c2c(N3CCN(C)CC3)nc3c(C)cccn3c2=O)SC1=S` [Compound 10, 4H-Pyrido[1,2-a]pyrimidin-4-one, 3-[(3-butyl-4-oxo-2-thioxo-5-thiazol-idinylidene)methyl]-9-methyl-2-(4-methyl-1-piperazinyl)-], which CC50 at 7 days [2] is on record?
**A.** 11.8 µg/mL (≈ 25.8 µM)

**Q.** And the “Inhibition (%) Co-incubation” value [3]?
**A.** 80%

**Q.** And the “Inhibition (%) Pre-Incubation” value [3]?
**A.** 73%

**Q.** And the EC50 [4]?
**A.** 3.2 µg/mL (≈ 6.99 µM)

**Q.** For `O=C(CN1C(=O)C(=C2SC(=S)N(CCS(=O)(=O)O)C2=O)c2ccccc21)Nc1cccc(C(F)(F)F)c1` [Compound 11, 5-[1,2-dihydro-2-oxo-1-[2-oxo-2-[[3-(trifluoromethyl)phenyl]amino]ethyl]-3H-indol-3-ylidene]-4-oxo-2-thioxo-3-thiazolidineethanesulfonic acid], which CC50 at 7 days [2] is on record?
**A.** > 100 µg/mL

**Q.** And the EC50 [4]?
**A.** < 0.03 µg/mL

**Q.** Which “Inhibition (%) Co-incubation” value [3] does the source give for `O=C1C(=Cc2c(NCCCn3ccnc3)nc3ccccn3c2=O)SC(=S)N1Cc1ccccc1` [Compound 25, 4H-Pyrido[1,2-a]pyrimidin-4-one, 3-[(3-phenylmethyl-4-oxo-2-thioxo-5-thiazolidinylidene)methyl]-2-[[3-(1H-imidazol-1-yl)propyl]amino]-] here?
**A.** 67%

**Q.** What about the “Inhibition (%) Pre-Incubation” value [3] of the same molecule?
**A.** 89%

**Q.** Which results are given for `Cc1cccn2c(=O)c(C=C3SC(=S)N(Cc4ccccc4)C3=O)c(NCCN3CCOCC3)nc12` [Compound 26, 4H-Pyrido[1,2-a]pyrimidin-4-one, 3-[[3-(phenylmethyl)-4-oxo-2-thioxo-5-thiazolidinylidene]methyl]-2-[[2-(4-morpholinyl)ethyl]amino]-9-methyl-]?
**A.** SI [5]: > 17; EC50 ([5]; Bovine viral diarrhea virus isolates and strains): 6 µM; IC50 [6]: > 100 µM

**Q.** Which “Inhibition (%) Co-incubation” value [3] does the source give for `Cc1ccc2nc(N3CCN(C)CC3)c(C=C3SC(=S)N(Cc4ccccc4)C3=O)c(=O)n2c1` [Compound 5, 4H-Pyrido[1,2-a]pyrimidin-4-one, 3-[(3-phenylmethyl-4-oxo-2-thioxo-5-thiazolidinylidene)methyl]-2-(4-methyl-1-piperazinyl)-7-methyl-] here?
**A.** 66%

**Q.** What about the “Inhibition (%) Pre-Incubation” value [3] of the same molecule?
**A.** 68%
